Experimental findings from patent publication US20050059605A1, “Chemically modified metabolites of regulatory peptides and methods of producing and using same” (priority 2003, published 2005) are described below.

Where no end group is shown, it is not given here.

The test system of experiment [1] is whole anterior pituitary culture. Kind of experiment: cAMP production stimulated by GRF analogues in whole anterior pituitary culture. Format: cell-based. Conditions: 10^−6 M, compared to analogue 356, FIG. 6. From the text:
For comparison, a DPPIV resistant analogue of GRF (analogue 280) was shown.
A general note: cAMP levels reflect the balance of adenylyl cyclase and phosphodiesterase activity.

Experiment [2] has as its system freshly isolated hepatocytes. Kind of experiment: Effects of glucagon and analogues on freshly isolated hepatocyte cAMP production. Format: cell-based, rat. Particulars: 10^−7M, n=2, FIG. 3, compared to analogue 357 or glucagon. On the procedure:
All experimental procedures were performed under isoflurane (2.5%) anesthesia according to an experimental protocol approved by Ste-Justine Hospital (Montreal) animal care committee. […] The animal was perfused through the heart to remove a maximal amount of blood from the liver (acquire a light brown color). A catheter (PE-90) was then inserted in the portal vein and the liver further perfused to eliminate any trace of blood. The hepatic artery was also cannulated (PE-50) and perfused. The liver was then carefully removed from the abdominal cavity and placed into a 250 ml beaker. Digesting HEPES buffer containing 9650U collagenase and 20U elastase at 37° C. was placed into the beaker and circulated in a closed loop via the catheters for 10 minutes at maximal speed. The buffer was replaced with a fresh solution of collagenase and elastase and perfusion continues for 10 additional minutes. […]
Stimulation studies were performed at a concentration of 1 million cells per tube; 5 minutes of pre-treatment with 0.1 mM IBMX, with or without glucagon agonists (10^−7M) compared to treatment with glucagon (10^−7M). […] The cAMP levels in the tubes were determined using a radioimmunoassay kit (Amersham DPC kit). The data are expressed as pmol cAMP/million cells.

Experiment [3] concerns RINm5F cells. Kind of experiment: Dose response curves of GLP-1 analogues on cAMP production in RINm5F cells. Format: cell-based, rat. Conditions: n=3, FIG. 4. On the procedure: RINm5F cells (ATCC # CRL-2058) were grown according to the manufacturer's specifications. Cells from […] confluent flasks were trypsinized and counted. 20 000 cells/well were seeded in 96-well plate (White Costar plate with clear bottom) in 100 μl media. Cells were grown four days past confluence before being using for experiments.
Stock solutions of agents tested were prepared in DDH2O+0.1% BSA at a concentration of 1 mM (correcting for peptide purity and peptide content when available) immediately prior to the beginning of the assay. From the stock solutions, 2× dilutions (2×10^−12 M to 2×10^−5 M) were made in RPMI medium containing 0.5 mM IBMX. Cell culture media was gently removed from wells. Cells were then washed once with RPMI containing 0.5 mM IBMX and then pre-incubated in 100 μl RPMI/0.5 mM IBMX at 37° C. for 10 minutes. After pre-incubation, 100 μl of each 2× dilutions were added to wells in triplicates and incubated at 37° C. for 40 minutes. At the end of incubation, the supernatant was collected and assayed for cAMP using a radioimmunoassay kit (DPC). Radioactive counts were transformed into cAMP amounts using a standard curve. cAMP values were corrected for total protein content in the corresponding wells determined by Coomassie blue assay. cAMP values were expressed as mean±SEM in pmol/mg protein (FIG. 2). […]

Experiment [4] has as its system C57BL/ks db/db mice. Kind of experiment: Glucose levels after subcutaneous injection in fasted and re-fed db/db mice. The format is in vivo. Conditions: 25 μg/mice (500 μg/kg) subcutaneous, 30 minutes of feeding subsequent to overnight fasting, compared to native GLP-1, FIG. 5.

In the case of “4-Methoxyphenethylamine-mGly-GRF-1 (3-29) amide [Compound 358]”, the cAMP response result in experiment [1] is reported as “significantly greater cAMP response”.
Turning to “4-Methoxyphenethylamine-mGly-Glucagon (3-29) amide [Compound 361]”, the “intracellular cAMP levels” value in experiment [2] was “significantly higher intracellular cAMP levels”.
With “4-Methoxyphenetylamine-mGly-GLP-1 (9-36) amide [Compound 288]”, in experiment [3], the cAMP production entry is on record as “increased CAMP production”. In addition, the “glucose levels (hypoglycemic response)” value in experiment [4] is recorded as “more significant hypoglycemic response”.
For the substance “Glucagon (3-29) amide (QGTFTSDYSKYLDSRRAQDFVQWLMNT-NH2; UniProt P01275 55-81, looked up, fragment) [Compound 357, glucagon analogue lacking the His-Ser dipeptide, reference compound]”, in experiment [2], the “intracellular cAMP levels” value is “negligible response”.
